Measurements as given in ChEMBL document CHEMBL1759880, “A facile, one-pot synthesis, characterization and antimicrobial activity of o-hydroxy anilide derivatives and 1-substituted-1,3-dicyclohexylurea analogs of long chain carboxylic acids” (2011).
In brackets after ≈: the same amount, converted by molar mass.

Assays:
Streptococcus pyogenes [1] = test: Antibacterial activity against Streptococcus pyogenes clinical isolate after 24 hrs by broth dilution technique; assay type: functional
Escherichia coli [2] = test: Antibacterial activity against Escherichia coli ATCC 25922 after 24 hrs by disc diffusion method; assay type: functional
Streptococcus pyogenes [3] = test: Antibacterial activity against Streptococcus pyogenes clinical isolate after 24 hrs by disc diffusion method; assay type: functional
Pseudomonas aeruginosa [4] = test: Antibacterial activity against Pseudomonas aeruginosa ATCC 27853 after 24 hrs by broth dilution technique; conditions: ATCC-27853, 24 h
Candida albicans [5] = test: Antifungal activity against Candida albicans after 48 hrs by broth dilution technique; assay type: functional
Escherichia coli [6] = test: Antibacterial activity against Escherichia coli ATCC 25922 after 24 hrs by broth dilution technique; assay type: functional; conditions: ATCC-25922, 24 h
[7] = tested on: Trichophyton mentagrophytes; test: Antifungal activity against Trichophyton mentagrophytes after 3 to 4 days by disc diffusion method; assay type: functional
[8] = tested on: Trichophyton mentagrophytes; test: Antifungal activity against Trichophyton mentagrophytes after 48 hrs by broth dilution technique; assay type: functional
Aspergillus fumigatus [9] = test: Antifungal activity against Aspergillus fumigatus after 3 to 4 days by disc diffusion method; assay type: functional
Aspergillus fumigatus [10] = test: Antifungal activity against Aspergillus fumigatus after 48 hrs by broth dilution technique; assay type: functional
Candida albicans [11] = test: Antifungal activity against Candida albicans after 3 to 4 days by disc diffusion method; assay type: functional
Talaromyces marneffei [12] = test: Antifungal activity against Penicillium marneffei after 48 hrs by broth dilution technique; assay type: functional
Klebsiella pneumoniae [13] = test: Antibacterial activity against Klebsiella pneumoniae clinical isolate after 24 hrs by disc diffusion method; assay type: functional
Pseudomonas aeruginosa [14] = test: Antibacterial activity against Pseudomonas aeruginosa ATCC 27853 after 24 hrs by disc diffusion method
Klebsiella pneumoniae [15] = test: Antibacterial activity against Klebsiella pneumoniae clinical isolate after 24 hrs by broth dilution technique; assay type: functional
Talaromyces marneffei [16] = test: Antifungal activity against Penicillium marneffei after 3 to 4 days by disc diffusion method; assay type: functional
Staphylococcus aureus [17] = test: Antibacterial activity against Staphylococcus aureus ATCC 25923 after 24 hrs by broth dilution technique; assay type: functional; conditions: ATCC-25923, 24 h
Staphylococcus aureus [18] = test: Antibacterial activity against Staphylococcus aureus ATCC 25923 after 24 hrs by disc diffusion method; assay type: functional

## CCCCCCCCCCCCCCCC(=O)Nc1ccccc1O
Streptococcus pyogenes [1]
  MBC: 100 µg/mL (≈ 288 µM)
  MIC: 50 µg/mL (≈ 144 µM)
Escherichia coli [2]
  diameter of the inhibition zone (DIZ): 11.8 mm
Streptococcus pyogenes [3]
  diameter of the inhibition zone (DIZ): 10.6 mm
Pseudomonas aeruginosa [4]
  MBC: 100 µg/mL (≈ 288 µM)
  MIC: 100 µg/mL (≈ 288 µM)
Candida albicans [5]
  MFC: 100 µg/mL (≈ 288 µM)
  MIC: 50 µg/mL (≈ 144 µM)
Escherichia coli [6]
  MBC: 100 µg/mL (≈ 288 µM)
  MIC: 100 µg/mL (≈ 288 µM)
[7]
  diameter of the inhibition zone (DIZ): 9.8 mm
[8]
  MFC: 100 µg/mL (≈ 288 µM)
  MIC: 25 µg/mL (≈ 71.9 µM)
Aspergillus fumigatus [9]
  diameter of the inhibition zone (DIZ): 11.6 mm
Aspergillus fumigatus [10]
  MFC: 100 µg/mL (≈ 288 µM)
  MIC: 50 µg/mL (≈ 144 µM)
Candida albicans [11]
  diameter of the inhibition zone (DIZ): 13.7 mm
Talaromyces marneffei [12]
  MFC: 100 µg/mL (≈ 288 µM)
  MIC: 50 µg/mL (≈ 144 µM)
Klebsiella pneumoniae [13]
  diameter of the inhibition zone (DIZ): 10.5 mm
Pseudomonas aeruginosa [14]
  diameter of the inhibition zone (DIZ): 11.5 mm
Klebsiella pneumoniae [15]
  MBC: 100 µg/mL (≈ 288 µM)
  MIC: 50 µg/mL (≈ 144 µM)
Talaromyces marneffei [16]
  diameter of the inhibition zone (DIZ): 9.3 mm
Staphylococcus aureus [17]
  MBC: 100 µg/mL (≈ 288 µM)
  MIC: 50 µg/mL (≈ 144 µM)
Staphylococcus aureus [18]
  diameter of the inhibition zone (DIZ): 9.8 mm
